Source: patent US10723741B1, “DNA polymerase IIIC inhibitors and use thereof” (Acurx Pharmaceuticals, LLC, priority 2018, dated 2020)
Values after ≈ are worked out from the molar mass of the structure shown.

Experiments:
Assay type in all cases: cell-based
[1] = test system: Staphylococcus aureus ATCC 29213 (MSSA); experiment: Broth microdilution MIC, S. aureus ATCC 29213 (MSSA); conditions: broth microdilution, 37° C., 20 hours, read-out: MIC S. aureus ATCC 29213 (MSSA)
Outline: (§1)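 Broth microdilution in strain-specific test medium with ~5.0×10^5 cfu/ml inoculum, 1% DMSO and two-fold compound dilutions from 64 to 0.0625 μg/ml. Plates were held 20 hours at 37° C in ambient air. S. pneumoniae colonies were grown beforehand on blood agar in 5% CO2.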

[2] = test system: Bacillus subtilis ATCC 6633; experiment: Broth microdilution MIC, B. subtilis ATCC 6633; conditions: ATCC6633, broth microdilution, 37° C., 20 hours, read-out: MIC B. subtilis ATCC 6633
Outline: as §1

[3] = test system: Enterococcus faecalis ATCC 29212; experiment: Broth microdilution MIC, E. faecalis ATCC 29212; conditions: ATCC29212, broth microdilution, 37° C., 20 hours, read-out: MIC E. faecalis ATCC 29212
Outline: as §1

[4] = test system: Escherichia coli ATCC 25922; experiment: Broth microdilution MIC, E. coli ATCC 25922 (MHIIB w & w/o 4 mM EDTA); conditions: broth microdilution, 37° C., 20 hours; for MIC: Escherichia coli, ATCC25922, without EDTA, read-out: MIC E. coli ATCC 25922; for MIC E. coli ATCC 25922 + 4 mM EDTA: with 4 mM EDTA
Outline: as §1

[5] = test system: Enterococcus faecium ATCC 700221 (VRE); experiment: Broth microdilution MIC, E. faecium ATCC 700221 (VRE); set-up: MIC E. faecium ATCC 700221 (VRE): unit: ug/mL; conditions: broth microdilution, 37° C., 20 hours; for MIC: Enterococcus faecium, read-out: MIC E. faecium ATCC 700221 (VRE)
Outline: as §1

[6] = test system: Streptococcus pneumoniae ATCC 49619; experiment: Broth microdilution MIC, S. pneumoniae ATCC 49619; conditions: ATCC49619, broth microdilution, 37° C., 20 hours, read-out: MIC S. pneumoniae ATCC 49619
Outline: as §1

[7] = test system: Staphylococcus aureus NRS384 (MRSA); experiment: Broth microdilution MIC, S. aureus NRS384 (MRSA); conditions: Staphylococcus aureus; broth microdilution, 37° C., 20 hours; read-out: MIC NRS 384 (MRSA)
Outline: as §1

| MIC [1] [µg/mL] | MIC [2] [µg/mL] | MIC [3] [µg/mL] | MIC [4] [µg/mL] | MIC E. coli ATCC 25922 + 4 mM EDTA [4] [µg/mL] | MIC [5] [µg/mL] | MIC [6] [µg/mL] | MIC [7] [µg/mL] | MIC E. faecium ATCC 700221 (VRE) [5] | Compound |
| --- | --- | --- | --- | --- | --- | --- | --- | --- | --- |
| 16 | 4 | 8 | > 64 | 64 | 8 | 4 | 16 | – | Cl.O=c1[nH]c(NCc2ccc(Cl)c(Cl)c2)nc2cnn(CCN3CCC(O)CC3)c12 [Compound 65, 5-((3,4-Dichlorobenzyl)amino)-1-(2-(4-hydroxypiperidin-1-yl)ethyl)-1H-pyrazolo[4,3-d]pyrimidin-7(6H)-one hydrochloride] |
| 32 | 8 | 16 | > 64 | >64 | 16 | 8 | 32 | – | CN(C)C1CCN(CCn2ncc3nc(NCc4ccc(Cl)c(Cl)c4)[nH]c(=O)c32)CC1.Cl.Cl [Compound 67, 5-((3,4-Dichlorobenzyl)amino)-1-(2-(4-(dimethylamino)piperidin-1-yl)ethyl)-1H-pyrazolo[4,3-d]pyrimidin-7(6H)-one dihydrochloride] |
| 32 | 4 | 32 | > 64 | >64 | > 64 | 8 | 64 | – | CN1CC2CC1CN2CCn1ncc2nc(NCc3ccc(Cl)c(Cl)c3)[nH]c(=O)c21.Cl.Cl (stereo not shown) [Compound 69, 5-((3,4-Dichlorobenzyl)amino)-1-(2-(5-methyl-2,5-diazabicyclo[2.2.1]heptan-2-yl)ethyl)-1H-pyrazolo[4,3-d]pyrimidin-7(6H)-one dihydrochloride] |
| 32 | 4 | 32 | > 64 | >64 | 16 | 4 | 64 | – | Cl.Cl.O=c1[nH]c(NCc2ccc(Cl)c(Cl)c2)nc2cnn(CCN3CCN(CCO)CC3)c12 [Compound 71, 5-((3,4-Dichlorobenzyl)amino)-1-(2-(4-(2-hydroxyethyl)piperazin-1-yl)ethyl)-1H-pyrazolo[4,3-d]pyrimidin-7(6H)-one dihydrochloride] |
| 16 | 4 | 8 | > 64 | >64 | 8 | 8 | 16 | – | CN(C)C(=O)C1CN(CCn2ncc3nc(NCc4ccc(Cl)c(Cl)c4)[nH]c(=O)c32)CCO1.Cl (stereo not shown) [Compound 72, 4-(2-(5-((3,4-Dichlorobenzyl)amino)-7-oxo-6,7-dihydro-1H-pyrazolo[4,3-d]pyrimidin-1-yl)ethyl)-N,N-dimethylmorpholine-2-carboxamide hydrochloride] |
| 16 | 4 | 16 | > 64 | >64 | 8 | 8 | 16 | – | CN(C)CC1CN(CCn2ncc3nc(NCc4ccc(Cl)c(Cl)c4)[nH]c(=O)c32)CCO1.Cl.Cl (stereo not shown) [Compound 73, 5-((3,4-Dichlorobenzyl)amino)-1-(2-(2-((dimethylamino)methyl)morpholino)ethyl)-1H-pyrazolo[4,3-d]pyrimidin-7(6H)-one dihydrochloride] |
| 64 (≈ 92.8 µM) | 4 (≈ 5.8 µM) | 8 (≈ 11.6 µM) | > 64 | >64 | 2 (≈ 2.9 µM) | 32 (≈ 46.4 µM) | 32 (≈ 46.4 µM) | – | O=c1[nH]c(NCc2ccc(Cl)c(Cl)c2)nc2cnn(CCNCCn3ncc4nc(NCc5ccc(Cl)c(Cl)c5)[nH]c(=O)c43)c12 [Compound 78] |
| 16 (≈ 34.6 µM) | 8 (≈ 17.3 µM) | 8 (≈ 17.3 µM) | > 64 | >64 | 4 (≈ 8.65 µM) | 8 (≈ 17.3 µM) | 16 (≈ 34.6 µM) | – | CN(CCn1ncc2nc(NCc3ccc(Cl)c(Cl)c3)[nH]c(=O)c21)C(=O)c1cnoc1 [Compound 82, N-(2-(5-((3,4-dichlorobenzyl)amino)-7-oxo-6,7-dihydro-1H-pyrazolo[4,3-d]pyrimidin-1-yl)ethyl)-N-methylisoxazole-4-carboxamide] |

The remaining lines, values behind:

| Compound | MIC [1] [µg/mL] | MIC [2] [µg/mL] | MIC [3] [µg/mL] | MIC [4] [µg/mL] | MIC E. coli ATCC 25922 + 4 mM EDTA [4] [µg/mL] | MIC [5] [µg/mL] | MIC [6] [µg/mL] | MIC [7] [µg/mL] | MIC E. faecium ATCC 700221 (VRE) [5] |
| --- | --- | --- | --- | --- | --- | --- | --- | --- | --- |
| Cl.NC(=O)C1CCN(CCn2ncc3nc(NCc4ccc(Cl)c(Cl)c4)[nH]c(=O)c32)CC1 [Compound 66, 1-(2-(5-((3,4-Dichlorobenzyl)amino)-7-oxo-6,7-dihydro-1H-pyrazolo[4,3-d]pyrimidin-1-yl)ethyl)piperidine-4-carboxamide hydrochloride hydrochloride] | 64 | 8 | 32 | > 64 | 64 | 16 | 8 | 32 | – |
| Cl.O=c1[nH]c(NCc2ccc(Cl)c(Cl)c2)nc2cnn(CCN3C[C@@H]4C[C@H]3CO4)c12 [Compound 68, 1-(2-((1 S,4S)-2-oxa-5-azabicyclo[2.2.1]heptan-5-yl)ethyl)-5-((3,4-dichlorobenzyl)amino)-1H-pyrazolo[4,3-d]pyrimidin-7(6H)-one hydrochloride] | 4 | 1 | 4 | > 64 | 64 | – | 4 | 4 | 4/2 |
| Cl.O=c1[nH]c(NCc2ccc(Cl)c(Cl)c2)nc2cnn(CCN3CC(O)C3)c12 [Compound 70, 5-((3,4-Dichlorobenzyl)amino)-1-(2-(3-hydroxyazetidin-1-yl)ethyl)-1H-pyrazolo[4,3-d]pyrimidin-7(6H)-one hydrochloride] | > 64 | 16 | 64 | > 64 | 64 | > 64 | 8 | 64 | – |
| O=c1[nH]c(NCc2ccc(Cl)c(Cl)c2)nc2cnn(CCN3CCNCC3)c12 [Compound 74, 5-((3,4-dichlorobenzyl)amino)-1-(2-(piperazin-1-yl)ethyl)-1H-pyrazolo[4,3-d]pyrimidin-7(6H)-one] | 32 (≈ 75.8 µM) | 8 (≈ 18.9 µM) | 64 (≈ 152 µM) | > 64 | >64 | 16 (≈ 37.9 µM) | 16 (≈ 37.9 µM) | 64 (≈ 152 µM) | – |
| O=c1[nH]c(NCc2ccc(Cl)c(Cl)c2)nc2cnn(CC(O)CO)c12 (stereo not shown) [Compound 75, 5-((3,4-dichlorobenzyl)amino)-1-(2,3-dihydroxypropyl)-1H-pyrazolo[4,3-d]pyrimidin-7(6H)-one] | 16 (≈ 41.6 µM) | 8 (≈ 20.8 µM) | 16 (≈ 41.6 µM) | > 64 | >64 | 8 (≈ 20.8 µM) | 4 (≈ 10.4 µM) | 16 (≈ 41.6 µM) | – |
| O=c1[nH]c(NCc2ccc(Cl)c(Cl)c2)nc2cnn(CCO)c12 [Compound 76, 5-((3,4-dichlorobenzyl)amino)-1-(2-hydroxyethyl)-1H-pyrazolo[4,3-d]pyrimidin-7(6H)-one] | 4 (≈ 11.3 µM) | 2 (≈ 5.65 µM) | 4 (≈ 11.3 µM) | > 64 | >64 | 2 (≈ 5.65 µM) | 4 (≈ 11.3 µM) | 4 (≈ 11.3 µM) | – |
| Cc1noc(C)c1C(=O)NCCn1ncc2nc(NCc3ccc(Cl)c(Cl)c3)[nH]c(=O)c21 [Compound 79, N-(2-(5-((3,4-dichlorobenzyl)amino)-7-oxo-6,7-dihydro-1H-pyrazolo[4,3-d]pyrimidin-1-yl)ethyl)-3,5-dimethylisoxazole-4-carboxamide] | 16 (≈ 33.6 µM) | 16 (≈ 33.6 µM) | 16 (≈ 33.6 µM) | > 64 | >64 | 8 (≈ 16.8 µM) | 8 (≈ 16.8 µM) | 32 (≈ 67.2 µM) | – |
| Cc1noc(C)c1C(=O)N(C)CCn1ncc2nc(NCc3ccc(Cl)c(Cl)c3)[nH]c(=O)c21 [Compound 80, N-(2-(5-((3,4-dichlorobenzyl)amino)-7-oxo-6,7-dihydro-1H-pyrazolo[4,3-d]pyrimidin-1-yl)ethyl)-N,3,5-trimethylisoxazole-4-carboxamide] | 32 (≈ 65.3 µM) | 16 (≈ 32.6 µM) | 32 (≈ 65.3 µM) | > 64 | 64 | 16 (≈ 32.6 µM) | 8 (≈ 16.3 µM) | 32 (≈ 65.3 µM) | – |
| CN(CCn1ncc2nc(NCc3ccc(Cl)c(Cl)c3)[nH]c(=O)c21)C(=O)c1cc(Cl)nnc1O [Compound 81, 6-Chloro-N-(2-(5-((3,4-dichlorobenzyl)amino)-7-oxo-6,7-dihydro-1H-pyrazolo[4,3-d]pyrimidin-1-yl)ethyl)-3-hydroxy-N-methylpyridazine-4-carboxamide] | 64 (≈ 122 µM) | 64 (≈ 122 µM) | 32 (≈ 61.1 µM) | > 64 | 64 | 32 (≈ 61.1 µM) | 8 (≈ 15.3 µM) | 64 (≈ 122 µM) | – |
